Data reported in ChEMBL document CHEMBL3046389, “Synthesis and biological evaluation of novel hydroquinone dimethyl ethers as potential anticancer and antimicrobial agents” (2013).
Converted amounts (≈) assume the structure as drawn.

Assays:
Format in all cases: functional
K562 = experiment: Anticancer activity against Homo sapiens (human) K562 cells after 48 hr by SRB assay; conditions: K562, 48 h
MDA-MB-468 = experiment: Growth inhibition of Homo sapiens (human) MDA-MB-468 cells at 10 uM after 48 hr by SRB assay; conditions: MDA-MB-468, 48 h, read-out: GI
T47D = experiment: Growth inhibition of Homo sapiens (human) T47D cells at 10 uM after 48 hr by SRB assay; conditions: read-out: GI
TK-10 = experiment: Growth inhibition of Homo sapiens (human) TK10 cells at 10 uM after 48 hr by SRB assay; conditions: TK-10, 48 h, read-out: GI
Candida albicans = experiment: Antimicrobial activity against Candida albicans DSM 70014 after 48 hr by two-fold serial broth dilution method; conditions: DSM 70014, 48 h
Pseudomonas aeruginosa = experiment: Antimicrobial activity against Pseudomonas aeruginosa ATCC 10145 after 48 hr by two-fold serial broth dilution method; conditions: ATCC 10145, 48 h
U-251 [1] = experiment: Anticancer activity against Homo sapiens (human) U251 cells after 48 hr by SRB assay; conditions: U-251, 48 h
SF-295 = experiment: Anticancer activity against Homo sapiens (human) SF295 cells after 48 hr by SRB assay; conditions: SF-295, 48 h
SF-268 = experiment: Anticancer activity against Homo sapiens (human) SF268 cells after 48 hr by SRB assay; conditions: SF-268, 48 h
HT-29 = experiment: Anticancer activity against Homo sapiens (human) HT-29 cells after 48 hr by SRB assay; conditions: HT-29, 48 h
COLO 205 = experiment: Anticancer activity against Homo sapiens (human) COLO205 cells after 48 hr by SRB assay; conditions: COLO 205, 48 h
NCI-H23 = experiment: Anticancer activity against Homo sapiens (human) NCI-H23 cells after 48 hr by SRB assay; conditions: NCI-H23, 48 h
EKVX = experiment: Anticancer activity against Homo sapiens (human) EKVX cells after 48 hr by SRB assay
BT-549 = experiment: Anticancer activity against Homo sapiens (human) BT549 cells after 48 hr by SRB assay; conditions: BT-549, 48 h
MDA-MB-231 = experiment: Anticancer activity against Homo sapiens (human) MDA-MB-231/ATCC cells after 48 hr by SRB assay; conditions: MDA-MB-231, 48 h
DU-145 = experiment: Anticancer activity against Homo sapiens (human) DU145 cells after 48 hr by SRB assay; conditions: DU-145, 48 h
ACHN [2] = experiment: Anticancer activity against Homo sapiens (human) ACHN cells after 48 hr by SRB assay
A498 = experiment: Anticancer activity against Homo sapiens (human) A498 cells after 48 hr by SRB assay; conditions: A498, 48 h
ACHN [3] = experiment: Growth inhibition of Homo sapiens (human) ACHN cells at 10 uM after 48 hr by SRB assay; conditions: read-out: GI
SK-OV-3 = experiment: Anticancer activity against Homo sapiens (human) SKOV3 cells after 48 hr by SRB assay; conditions: SK-OV-3, 48 h
SK-MEL-28 = experiment: Anticancer activity against Homo sapiens (human) SK-MEL-28 cells after 48 hr by SRB assay; conditions: SK-MEL-28, 48 h
Bacillus subtilis = experiment: Antimicrobial activity against Bacillus subtilis ATCC 6633 after 48 hr by two-fold serial broth dilution method; conditions: ATCC 6633, 48 h
OVCAR-3 = experiment: Growth inhibition of Homo sapiens (human) OVCAR3 cells at 10 uM after 48 hr by SRB assay; conditions: OVCAR-3, 48 h, read-out: GI
U-251 [4] = experiment: Growth inhibition of Homo sapiens (human) U251 cells at 10 uM after 48 hr by SRB assay; conditions: U-251, 48 h, read-out: GI
SNB-75 = experiment: Growth inhibition of Homo sapiens (human) SNB75 cells at 10 uM after 48 hr by SRB assay; conditions: SNB-75, 48 h, read-out: GI
SW-620 = experiment: Growth inhibition of Homo sapiens (human) SW620 cells at 10 uM after 48 hr by SRB assay; conditions: SW-620, 48 h, read-out: GI
[5] = read-out: LC50 (the source's name)

COc1ccc(OC)c(/C=C/c2nnc(Nc3ccc(Cl)cc3)o2)c1
GI50 (K562): 92.8 µM | TGI (K562): > 100 µM | CC50 (K562; [5]): > 100 µM | inhibition of growth at 10 µM (MDA-MB-468): 34% | inhibition of growth at 10 µM (T47D): 105% | inhibition of growth at 10 µM (TK-10): 60.9% | MFC (Candida albicans): 50 µg/mL (≈ 140 µM) | MIC (Candida albicans): 50 µg/mL (≈ 140 µM) | MBC (Pseudomonas aeruginosa): 100 µg/mL (≈ 279 µM) | MIC (Pseudomonas aeruginosa): 100 µg/mL (≈ 279 µM) | GI50 (U-251 [1]): 3.81 µM | TGI (U-251 [1]): 14.3 µM | CC50 (U-251 [1]; [5]): 47.6 µM | GI50 (SF-295): 6.15 µM | TGI (SF-295): 64.5 µM | CC50 (SF-295; [5]): > 100 µM | GI50 (SF-268): 7.6 µM | TGI (SF-268): 37.9 µM | CC50 (SF-268; [5]): > 100 µM | GI50 (HT-29): 9.44 µM | TGI (HT-29): 28.3 µM | CC50 (HT-29; [5]): 82.1 µM | GI50 (COLO 205): 16.6 µM | TGI (COLO 205): > 100 µM | CC50 (COLO 205; [5]): > 100 µM | GI50 (NCI-H23): 21.7 µM | TGI (NCI-H23): > 100 µM | CC50 (NCI-H23; [5]): > 100 µM | GI50 (EKVX): 40.5 µM | TGI (EKVX): > 100 µM | CC50 (EKVX; [5]): > 100 µM | TGI (BT-549): > 100 µM | CC50 (BT-549; [5]): > 100 µM | GI50 (MDA-MB-231): 5.23 µM | TGI (MDA-MB-231): 53.1 µM | CC50 (MDA-MB-231; [5]): > 100 µM | GI50 (DU-145): 11.4 µM | TGI (DU-145): 36.9 µM | CC50 (DU-145; [5]): > 100 µM | GI50 (ACHN [2]): 3.29 µM | TGI (ACHN [2]): 19.9 µM | CC50 (ACHN [2]; [5]): > 100 µM | GI50 (A498): 1.87 µM | LC50 (A498): > 100 µM | TGI (A498): 7.76 µM | inhibition of growth at 10 µM (ACHN [3]): 67.4% | GI50 (SK-OV-3): 2.79 µM | LC50 (SK-OV-3): 60.6 µM | TGI (SK-OV-3): 7.85 µM | GI50 (SK-MEL-28): 26.8 µM | LC50 (concentration killing 50% of cells) (SK-MEL-28): > 100 µM | TGI (SK-MEL-28): > 100 µM | MBC (Bacillus subtilis): 100 µg/mL (≈ 279 µM) | MIC (Bacillus subtilis): 100 µg/mL (≈ 279 µM) | inhibition of growth at 10 µM (OVCAR-3): 67.9% | inhibition of growth at 10 µM (U-251 [4]): 58.2% | inhibition of growth at 10 µM (SNB-75): 84.2% | inhibition of growth at 10 µM (SW-620): 33.3%
